According to patent US8987195B2 (priority 2012, dated 2015):
Read-outs that look alike come from different tables or passages of the source.

How the values were obtained:
[1] = molecular target: HCV NS3/4A protease genotype 1b (Hepatitis C virus genotype 1b, UniProt P26663); assay: HCV NS3/4A protease time-resolved fluorescence (TRF) assay, Ki against genotype 1b; assay type: biochemical
Outline: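 Ki values come from IC50 fits corrected for substrate concentration and KM. The time-resolved fluorescence protease reaction used 25 nM peptide substrate, 2.5 h, room temperature, pH 7.5 HEPES buffer, after 30 min enzyme–inhibitor preincubation.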

[2] = system: HCV genotype 1b replicon; assay: HCV replicon assay, genotype 1b replicon EC50; assay type: cell-based, Hepatitis C virus; conditions: Hepatitis C virus, read-out: EC50 [gt-1b]
Outline: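 Readout was replicon RNA copy number, by 32P-probe protection or TaqMan normalized to cellular cyclophilin A RNA, or luciferase activity for luciferase:Neo^r fusion lines. Cells were exposed to serially diluted compound for 24-48 hours without G418, then washed and lysed. EC50 derived from four-parameter fit relative to DMSO.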

[3] = IC50 [gt-1b], NS3/4A protease TRF assay, genotype 1b enzyme 0.2 nM, K+ salt
[4] = HCV replicon, genotype 1b, K+ salt
[5] = IC50 [gt-1b] (nM), NS3/4A genotype 1b, enzyme 0.2 nM

Sequence of HCV NS3/4A protease genotype 1b (P26663 1027-1657): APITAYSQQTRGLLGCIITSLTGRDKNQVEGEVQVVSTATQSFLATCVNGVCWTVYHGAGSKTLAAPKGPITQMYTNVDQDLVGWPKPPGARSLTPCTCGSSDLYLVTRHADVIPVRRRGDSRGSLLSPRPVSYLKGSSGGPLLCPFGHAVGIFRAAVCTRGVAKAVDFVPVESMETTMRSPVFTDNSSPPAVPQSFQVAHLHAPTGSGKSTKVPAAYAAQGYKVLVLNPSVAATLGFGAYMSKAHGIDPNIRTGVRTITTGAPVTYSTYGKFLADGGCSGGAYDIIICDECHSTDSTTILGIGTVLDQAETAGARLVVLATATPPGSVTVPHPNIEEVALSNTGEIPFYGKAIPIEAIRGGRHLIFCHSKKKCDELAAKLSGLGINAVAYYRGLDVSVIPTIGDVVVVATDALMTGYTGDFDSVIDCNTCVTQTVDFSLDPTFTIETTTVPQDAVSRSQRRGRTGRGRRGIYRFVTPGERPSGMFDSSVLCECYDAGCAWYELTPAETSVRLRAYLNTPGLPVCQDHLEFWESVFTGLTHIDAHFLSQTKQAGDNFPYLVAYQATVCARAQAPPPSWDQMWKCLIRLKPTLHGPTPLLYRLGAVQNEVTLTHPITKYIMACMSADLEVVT
Sequence of HCV NS3/4A protease genotype 1b (P26663 1658-1711): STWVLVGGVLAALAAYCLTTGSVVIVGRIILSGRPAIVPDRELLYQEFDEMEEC

## COc1ccc2nc(C)c3c(c2c1)C(F)(F)C[C@]1(C[C@H]2C(=O)N[C@]4(C(=O)NS(=O)(=O)C5(C)CC5)C[C@H]4/C=C\CCCCC[C@H](NC(=O)O[C@@H](C)C(C)C)C(=O)N2C1)O3 [Example 264, (2S)-3-methylbutan-2-yl [(2S,6S,12Z,13aS,14aR,16aS)-1′,1′-difluoro-9′-methoxy-5′-methyl-14a-{[(1-methylcyclopropyl)sulfonyl]carbamoyl}-5,16-dioxo-1,1′,2′,5,6,7,8,9,10,11,13a,14,14a,15,16,16a-hexadecahydrospiro[cyclopropa[e]pyrrolo[1,2-a][1,4]diazacyclopentadecine-2,3′-pyrano[2,3-c]quinolin]-6-yl]carbamate]
[1]; IC50 [gt-1b] (nM), NS3/4A genotype 1b, enzyme 0.2 nM, K+ salt
  IC50: 0.013 nM
[2]; genotype 1b replicon, K+ salt
  EC50: 4.3 nM

## COc1ccc2nc(C3CC3)c3c(c2c1)[C@H](F)C[C@]1(C[C@H]2C(=O)N[C@]4(C(=O)NS(=O)(=O)C5(C)CC5)C[C@H]4/C=C\CCCCC[C@H](NC(=O)OC(C)C)C(=O)N2C1)O3 [Example 456, propan-2-yl [(1′R,2S,6S,12Z,13aS,14aR,16aS)-5′-cyclopropyl-1′-fluoro-9′-methoxy-14a-{[(1-methylcyclopropyl)sulfonyl]carbamoyl}-5,16-dioxo-1,1′,2′,5,6,7,8,9,10,11,13a,14,14a,15,16,16a-hexadecahydrospiro[cyclopropa[e]pyrrolo[1,2-a][1,4]diazacyclopentadecine-2,3′-pyrano[2,3-c]quinolin]-6-yl]carbamate]
[1]; [3]
  IC50: 0.021 nM
[2]; [4]
  EC50: 1.41 nM

## COc1ccc2nc(C)c3c(c2c1)CC[C@]1(C[C@H]2C(=O)N[C@]4(C(=O)NS(=O)(=O)C5(C)CC5)C[C@H]4/C=C\CCCCC[C@H](NC(=O)OCC(C)C)C(=O)N2C1)O3 [Example 142, 2-methylpropyl [(2R,6S,12Z,13aS,14aR,16aS)-9′-methoxy-5′-methyl-14a-{[(1-methylcyclopropyl)sulfonyl]carbamoyl}-5,16-dioxo-1,1′,2′,5,6,7,8,9,10,11,13a,14,14a,15,16,16a-hexadecahydrospiro[cyclopropa[e]pyrrolo[1,2-a][1,4]diazacyclopentadecine-2,3′-pyrano[2,3-c]quinolin]-6-yl]carbamate]
[1]; [5]
  IC50: 0.004 nM
[2]; genotype 1b replicon
  EC50: 1.14 nM

## CCOC(=O)N[C@H]1CCCCC/C=C\[C@@H]2C[C@@]2(C(=O)NS(=O)(=O)C2(C)CC2)NC(=O)[C@@H]2C[C@]3(CCc4c(c(C5CC5)nc5ccc(OC)cc45)O3)CN2C1=O [Example 436, ethyl [(2R,6S,12Z,13aS,14aR,16aS)-5′-cyclopropyl-9′-methoxy-14a-{[(1-methylcyclopropyl)sulfonyl]carbamoyl}-5,16-dioxo-1,1′,2′,5,6,7,8,9,10,11,13a,14,14a,15,16,16a-hexadecahydrospiro[cyclopropa[e]pyrrolo[1,2-a][1,4]diazacyclopentadecine-2,3′-pyrano[2,3-c]quinolin]-6-yl]carbamate]
[1]; [3]
  IC50: 0.029 nM
[2]; [4]
  EC50: 1.18 nM

## Cc1nc2cc(F)ccc2c2c1O[C@]1(CC2)C[C@H]2C(=O)N[C@]3(C(=O)NS(=O)(=O)C4(C)CC4)C[C@H]3/C=C\CCCCC[C@H](NC(=O)OCC(C)(C)C)C(=O)N2C1 [Example 339, 2,2-dimethylpropyl [(2R,6S,12Z,13aS,14aR,16aS)-8′-fluoro-5′-methyl-14a-{[(1-methylcyclopropyl)sulfonyl]carbamoyl}-5,16-dioxo-1,1′,2′,5,6,7,8,9,10,11,13a,14,14a,15,16,16a-hexadecahydrospiro[cyclopropa[e]pyrrolo[1,2-a][1,4]diazacyclopentadecine-2,3′-pyrano[2,3-c]quinolin]-6-yl]carbamate]
[1]; [5]
  IC50: 0.019 nM
[2]; genotype 1b replicon
  EC50: 1.92 nM
